# From the supplement of paper PMC10307832
# Legend:
# Test in all cases: relative viability (nuclei count vs DMSO), 5 days (fraction); higher = more cells survive
# NCI-H441 = test system: NCI-H441
# Outline: (§1)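 For relative viability, nuclei counts in treated wells were divided by those in vehicle wells. Lung cancer cell lines had been pin-tool dosed in 1536-well plates the day after seeding and cultured for 5 days, then fixed and stained in one step (final 0.05% Triton X-100, 1% formaldehyde, 1 ug/ml Hoechst) and imaged at 4×. Doses were one drug alone or a fixed anchor-drug dose plus five library-drug doses (not always all listed) in √10 steps, and values are duplicate-plate medians.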
# NCI-H1792 = test system: NCI-H1792
# Outline: as §1
# ABC-1 = test system: ABC-1
# Outline: as §1
# NCI-H23 = test system: NCI-H23
# Outline: as §1
# LOU-NH91 = test system: LOU-NH91
# Outline: as §1
# RERF-LC-KJ = test system: RERF-LC-KJ
# Outline: as §1
# NCI-H322M = test system: NCI-H322M
# Outline: as §1
# NCI-H2085 = test system: NCI-H2085
# Outline: as §1
# NCI-H1355 = test system: NCI-H1355
# Outline: as §1
# NCI-H1755 = test system: NCI-H1755
# Outline: as §1
# NCI-H2023 = test system: NCI-H2023
# Outline: as §1
# NCI-H2405 = test system: NCI-H2405
# Outline: as §1
# NCI-H2170 = test system: NCI-H2170
# Outline: as §1
# HOP-62 = test system: HOP-62
# Outline: as §1
# NCI-H2009 = test system: NCI-H2009
# Outline: as §1
# ChaGo-K-1 = test system: ChaGo-K-1
# Outline: as §1
# SK-MES-1 = test system: SK-MES-1
# Outline: as §1
# LCLC-97TM1 = test system: LCLC-97TM1
# Outline: as §1
# NCI-H727 = test system: NCI-H727
# Outline: as §1
# HCC-78 = test system: HCC-78
# Outline: as §1
# NCI-H650 = test system: NCI-H650
# Outline: as §1
# NCI-H1437 = test system: NCI-H1437
# Outline: as §1
# UMC-11 = test system: UMC-11
# Outline: as §1
smiles,measurement,setting,value
O=c1[nH]c2ccccc2n1C1CCN(CCCC(c2ccc(F)cc2)c2ccc(F)cc2)CC1 [Pimozide] + COc1cccc2cc(-c3nc([C@H]4CC[C@H](C(=O)O)CC4)n4ncnc(N)c34)[nH]c12 [OSI-027] (partner 0.5 µM),relative viability,NCI-H441; first compound 0.08 µM,0.608
same,relative viability,NCI-H441; first compound 0.253 µM,0.577
same,relative viability,NCI-H441; first compound 0.8 µM,0.478
same,relative viability,NCI-H441; first compound 2.53 µM,0.436
same,relative viability,NCI-H441; first compound 8 µM,0.406
same,relative viability,NCI-H1792; first compound 0.08 µM,0.758
same,relative viability,NCI-H1792; first compound 0.253 µM,0.691
same,relative viability,NCI-H1792; first compound 0.8 µM,0.666
same,relative viability,NCI-H1792; first compound 2.53 µM,0.663
same,relative viability,NCI-H1792; first compound 8 µM,0.736
same,relative viability,ABC-1; first compound 0.08 µM,0.514
same,relative viability,ABC-1; first compound 0.253 µM,0.496
same,relative viability,ABC-1; first compound 0.8 µM,0.422
same,relative viability,ABC-1; first compound 2.53 µM,0.351
same,relative viability,ABC-1; first compound 8 µM,0.354
same,relative viability,NCI-H23; first compound 0.08 µM,0.696
same,relative viability,NCI-H23; first compound 0.253 µM,0.603
same,relative viability,NCI-H23; first compound 0.8 µM,0.379
same,relative viability,NCI-H23; first compound 2.53 µM,0.443
same,relative viability,NCI-H23; first compound 8 µM,0.477
same,relative viability,LOU-NH91; first compound 0.08 µM,0.442
same,relative viability,LOU-NH91; first compound 0.253 µM,0.699
same,relative viability,LOU-NH91; first compound 0.8 µM,0.638
same,relative viability,LOU-NH91; first compound 2.53 µM,0.729
same,relative viability,LOU-NH91; first compound 8 µM,0.708
same,relative viability,RERF-LC-KJ; first compound 0.08 µM,0.509
same,relative viability,RERF-LC-KJ; first compound 0.253 µM,0.513
same,relative viability,RERF-LC-KJ; first compound 0.8 µM,0.52
same,relative viability,RERF-LC-KJ; first compound 2.53 µM,0.427
same,relative viability,RERF-LC-KJ; first compound 8 µM,0.448
same,relative viability,NCI-H322M; first compound 0.253 µM,0.525
same,relative viability,NCI-H322M; first compound 0.8 µM,0.508
same,relative viability,NCI-H322M; first compound 2.53 µM,0.545
same,relative viability,NCI-H322M; first compound 8 µM,0.572
same,relative viability,NCI-H2085; first compound 0.08 µM,0.59
same,relative viability,NCI-H2085; first compound 0.253 µM,0.736
same,relative viability,NCI-H2085; first compound 0.8 µM,0.701
same,relative viability,NCI-H2085; first compound 2.53 µM,0.709
same,relative viability,NCI-H2085; first compound 8 µM,0.61
same,relative viability,NCI-H1355; first compound 0.08 µM,0.326
same,relative viability,NCI-H1355; first compound 0.253 µM,0.398
same,relative viability,NCI-H1355; first compound 0.8 µM,0.305
same,relative viability,NCI-H1355; first compound 2.53 µM,0.357
same,relative viability,NCI-H1355; first compound 8 µM,0.34
same,relative viability,NCI-H1755; first compound 0.08 µM,0.678
same,relative viability,NCI-H1755; first compound 0.253 µM,0.687
same,relative viability,NCI-H1755; first compound 0.8 µM,0.678
same,relative viability,NCI-H1755; first compound 2.53 µM,0.597
same,relative viability,NCI-H1755; first compound 8 µM,0.51
same,relative viability,NCI-H2023; first compound 0.08 µM,0.418
same,relative viability,NCI-H2023; first compound 0.253 µM,0.465
same,relative viability,NCI-H2023; first compound 0.8 µM,0.413
same,relative viability,NCI-H2023; first compound 2.53 µM,0.307
same,relative viability,NCI-H2023; first compound 8 µM,0.231
same,relative viability,NCI-H2405; first compound 0.08 µM,0.654
same,relative viability,NCI-H2405; first compound 0.253 µM,0.576
same,relative viability,NCI-H2405; first compound 0.8 µM,0.689
same,relative viability,NCI-H2405; first compound 2.53 µM,0.665
same,relative viability,NCI-H2405; first compound 8 µM,0.707
same,relative viability,NCI-H2170; first compound 0.08 µM,0.617
same,relative viability,NCI-H2170; first compound 0.253 µM,0.628
same,relative viability,NCI-H2170; first compound 0.8 µM,0.681
same,relative viability,NCI-H2170; first compound 2.53 µM,0.692
same,relative viability,NCI-H2170; first compound 8 µM,0.551
same,relative viability,HOP-62; first compound 0.08 µM,0.859
same,relative viability,HOP-62; first compound 0.253 µM,0.806
same,relative viability,HOP-62; first compound 2.53 µM,0.759
same,relative viability,HOP-62; first compound 8 µM,0.773
same,relative viability,NCI-H2009; first compound 0.08 µM,0.69
same,relative viability,NCI-H2009; first compound 0.253 µM,0.655
same,relative viability,NCI-H2009; first compound 0.8 µM,0.671
same,relative viability,NCI-H2009; first compound 2.53 µM,0.526
same,relative viability,NCI-H2009; first compound 8 µM,0.416
same,relative viability,ChaGo-K-1; first compound 0.08 µM,0.594
same,relative viability,ChaGo-K-1; first compound 0.253 µM,0.555
same,relative viability,ChaGo-K-1; first compound 0.8 µM,0.517
same,relative viability,ChaGo-K-1; first compound 2.53 µM,0.531
same,relative viability,ChaGo-K-1; first compound 8 µM,0.485
same,relative viability,SK-MES-1; first compound 0.08 µM,0.61
same,relative viability,SK-MES-1; first compound 0.253 µM,0.572
same,relative viability,SK-MES-1; first compound 0.8 µM,0.546
same,relative viability,SK-MES-1; first compound 2.53 µM,0.586
same,relative viability,SK-MES-1; first compound 8 µM,0.463
same,relative viability,LCLC-97TM1; first compound 0.08 µM,0.488
same,relative viability,LCLC-97TM1; first compound 0.253 µM,0.363
same,relative viability,LCLC-97TM1; first compound 0.8 µM,0.447
same,relative viability,LCLC-97TM1; first compound 2.53 µM,0.422
same,relative viability,LCLC-97TM1; first compound 8 µM,0.278
same,relative viability,NCI-H727; first compound 0.08 µM,0.717
same,relative viability,NCI-H727; first compound 0.253 µM,0.55
same,relative viability,NCI-H727; first compound 0.8 µM,0.512
same,relative viability,NCI-H727; first compound 2.53 µM,0.652
same,relative viability,NCI-H727; first compound 8 µM,0.54
same,relative viability,HCC-78; first compound 0.08 µM,0.439
same,relative viability,HCC-78; first compound 0.8 µM,0.345
same,relative viability,HCC-78; first compound 2.53 µM,0.36
same,relative viability,HCC-78; first compound 8 µM,0.354
same,relative viability,NCI-H650; first compound 0.08 µM,0.536
same,relative viability,NCI-H650; first compound 0.253 µM,0.555
same,relative viability,NCI-H650; first compound 0.8 µM,0.405
same,relative viability,NCI-H650; first compound 2.53 µM,0.537
same,relative viability,NCI-H650; first compound 8 µM,0.606
same,relative viability,NCI-H1437; first compound 0.08 µM,0.93
same,relative viability,NCI-H1437; first compound 0.253 µM,0.888
same,relative viability,NCI-H1437; first compound 0.8 µM,0.883
same,relative viability,NCI-H1437; first compound 2.53 µM,0.89
same,relative viability,NCI-H1437; first compound 8 µM,0.676
same,relative viability,UMC-11; first compound 0.08 µM,0.515
same,relative viability,UMC-11; first compound 0.253 µM,0.421
same,relative viability,UMC-11; first compound 0.8 µM,0.51
same,relative viability,UMC-11; first compound 2.53 µM,0.357
same,relative viability,UMC-11; first compound 8 µM,0.312
